For data set [1] the following is noted: cited from earlier work.
For data set [2] the following is noted: HFIP stock, 5 mg/ml. On the procedure: Determination of water percentage in the gel was done by washing a freshly formed hydrogel with water five times, each time for 15 minutes, followed by weighing the gel, lyophilizing it and weighing the remaining peptide aggregate.
The next data set can be described thus: in vitro. Particulars: CHO cells seeded on the peptide hydrogel. On the procedure: (§1) For cell growth in vitro experiments Chinese Hamster Ovary (CHO) cells were grown in Dulbecco's Modified Eagle Medium (DMEM) supplemented with 10% Fetal Calf Serum, 100 U/ml penicillin, 100 U/ml streptomycin and 2 mmol/liter L-glutamine (all from Beit Haemek, Israel). Cells were maintained at 37° C. in a humidified atmosphere containing 5% CO2. Sub-confluent cells were harvested by trypsinization, counted and diluted in the cells media to 1×10^5 cells/ml. The gel was washed three times with 0.5 ml water for 30 minutes at a time and was then left overnight in 0.5 ml DMEM. The DMEM was thereafter removed and 500 μl of CHO cells (5×10^4 cells) were added over the hydrogel. After a 24 hour incubation period at 37° C. the viability of the cells was determined using a MTT (3-(4,5-dimethylthiazolyl-2)-2,5-diphenyltetrazolium bromide) assay [Nowak et al., Nature 417, 424 (2002)].
(§2) In order to exploit whether the peptide-based hydrogel described herein can serve as a scaffold for tissue engineering applications, its biocompatibility was examined using cellular in vitro experiments. Chinese Hamster Ovary (CHO) cells were suspended above the hydrogel after its formation in a […]. After a one-day incubation period the cells were analyzed for viability.

Data set [3] has as its system Chinese Hamster Ovary (CHO) cells. Nature of the data set: in vitro. On the procedure: as §1, §2
The conditions of data set [4]: for G' (storage modulus): at 1 Hz. As to the method:
Rheological measurements were performed on AR 2000 controlled stress rheometer (TA Instruments Ltd, Great Britain) operated in cone-plate mode (cone angles 1 and 4 with diameters of 60 and 40 mm, respectively). Small-amplitude oscillatory shear experiments (0.1-10 Hz) were performed within the linear viscoelastic limit. Frequency scans were performed at the lowest stress possible to prevent damage to the sample. The linearity of response was monitored continuously to ascertain linear viscoelasticity.
To study the biomechanical characteristics of the novel hydrogel, rheology measurements were performed.

Where [5] appears, read: CHO cells on hydrogel from HFIP stock, one-day incubation.

Where two headings read alike, the source gives them in different places. Where a SMILES comes first, the peptide text is derived from it. The star is where a group is joined. Fmoc = O=C(OCC1c2ccccc2-c2ccccc21)* Where only a bound is given, the exact number is not on record here.

Regarding “[COCH3]-RADARADARADARADA-[CONH2] [RADA16 (Puramatrix)]”, the “G' (storage modulus)” value is given as 50 Pa in data set [1] (5 mg/ml, Tris HCl buffer, at 1 Hz, reported value); “about 50 Pa” in data set [1] (5 mg/ml, Tris HCl buffer, at 1 Hz, reported value, listed as PuraMatrix gel); “about 50 Pa” in data set [1] (at 1 Hz frequency, concentration not given).
One may read the viability as the share of living cells, or the viability signal relative to a control. A higher viability goes with better survival. Consider `O=C(N[C@@H](Cc1ccccc1)C(=O)N[C@@H](Cc1ccccc1)C(=O)O)OCC1c2ccccc2-c2ccccc21` [Fmoc-Phe-Phe, Fmoc-diphenylalanine] (Fmoc-Phe-Phe-OH), for which the hydrogel water content entry in data set [2] is “greater than 99%”. Further, the viability at 24 h in the data set “in vitro” was above 80%. The cell morphology result in data set [3] (setting [5]) is “normal cell morphology”. Moreover, the rate of proliferation entry in data set [3] (setting [5]) is recorded as “normal rate of proliferation”. The “cell growth on hydrogel compared with poly lysine” value in data set [3] (CHO cells, hydrogel from DMSO stock, final DMSO concentration 1%) is on record as “effective matrix for cell growth”. Also, in data set [4] (HFIP stock, final concentration 5 mg/ml (FIG. 3a)), the “storage modulus G' excess over loss modulus G''” value is “about one order of magnitude”. Further, the “G' (storage modulus)” value was “about 2×10^4 Pa” in data set [4] (peptide concentration 5 mg/ml, solvent not stated); 1,000 Pa in data set [4] (peptide final concentration 1 mg/ml, stock solution solvent DMSO); “about 2×10^3 Pa” in data set [4] (peptide final concentration 2 mg/ml, acetone stock solution); 10,000 Pa in data set [4] (peptide final concentration 5 mg/ml, stock solution solvent HFIP); “about 10^4 Pa” in data set [4] (peptide final concentration 5 mg/ml, stock solution solvent HFIP, listed as Fmoc-diphenylalanine); 10,000 Pa in data set [4] (peptide final concentration 5 mg/ml, stock solution solvent acetone). In addition, in data set [4] (peptide final concentration 10 mg/ml, acetone stock solution (FIG. 3c)), the “G' (storage modulus)” value is “about 2×10^4 Pa”. The “G' relative to that reported for other self-assembled peptide hydrogels” value in data set [4] (versus hydrogels formed without chemical cross linking) was 200 fold.
